Literature values in patent publication US20020146829A1, “Neutral and anionic colloidal particles for gene delivery” (Aventis Pharmaceuticals Products Inc., priority 2000, published 2002).

Target: T1, folate receptor on M109 cells (Mus musculus, UniProt P35846)
T1 construct: endogenous in cells; host or cells: M109 cells
T1 sequence (P35846 25-232): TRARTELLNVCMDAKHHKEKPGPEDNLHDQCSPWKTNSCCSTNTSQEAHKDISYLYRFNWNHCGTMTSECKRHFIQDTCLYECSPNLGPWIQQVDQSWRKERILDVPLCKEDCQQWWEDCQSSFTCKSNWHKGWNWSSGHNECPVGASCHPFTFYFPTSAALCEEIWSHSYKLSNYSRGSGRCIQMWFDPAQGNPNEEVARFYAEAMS

distearyl-PEG400-Folate [RPR258018]
binding to folate receptor: specifically bind
